{
  "source": "patent US8354274B2",
  "about": "“Synthetic surfaces for culturing cells in chemically defined media” (Geron Corporation, priority 2008, dated 2013)",
  "key": {"[1]": {"test_system": "HT-1080 human fibrosarcoma cells", "experiment": "HT-1080 cell adhesion assay (crystal violet, absorbance at 570 nm)", "type": "cell-based", "conditions": "for HT-1080 adhesion compared with linear BSP (SEQ ID NO:4)-conjugated (meth)acrylate: cyclic peptide conjugated to Formulation SA1, normalized to fibronectin (FN, 5 mg/mL)-coated surfaces", "text": "To evaluate ability of a polypeptide conjugated to embodiments of swellable (meth)acrylate using these conjugation methods to enable cell adhesion and proliferation, peptides Ac-LysTyrGlyArgLysArgLeuGlnValGlnLeuS erIleArgThr-NH2 (SE Q ID NO:22) (AG-73, an adhesive peptide) and Ac-GlyArgGlyGluSerProIleTyrLys-NH2 (SEQ ID NO:30) (RGE, a negative control) were conjugated to swellable (meth)acrylate (as described above) and adhesion of HT-1080 human fibrosarcoma cells to the swellable (meth)acrylate was evaluated. Briefly, Laminin (5 μg/mL, Sigma-Aldrich) control wells were coated for 1 hour at room temperature. All wells were blocked with 1% bovine serum albumin (BSA) in phosphate buffered saline (PBS) for 1 hour at 37° C. Wells were washed briefly with PBS before incubation with 0.1% BSA in Iscove's Modified Dulbecco's Medium (IMDM) prior to cell seeding. HT-1080 human fibrosarcoma cells (ATCC number: CCL-121) were grown in IMDM (Lonza) with 10% FBS (Lonza) to 90% confluency at standard cell culture conditions. Cells were trypsinized and allowed to recover in IMDM with 10% FBS for 30 minutes at 37° C., 5% CO2. After recovery, cells were washed and resuspended in 0.1% BSA in IMDM and seeded on peptide-conjugated plates at a density of 30,000 cells/well. Cell adhesion was allowed to take place for 1 hour at standard cell culture conditions. The media was aspirated from the wells and adherent cells were fixed and stained in 50 μL of 0.2% crystal violet in 20% methanol for 8 minutes at room temperature. Cellular absorption of crystal violet was quantified through addition of 1% SDS in H2O for 5 minutes prior to absorbance measurement at 570 nm. For this assay, after polypeptide conjugation the remaining NHS esters on the swellable (meth)acrylate were reacted with ethanolamine or aminopropyl morpholine to reduce uptake of crystal violet dye by the swellable (meth)acrylate."}, "[2]": {"test_system": "H7 hES cells", "experiment": "AttoPhos screening (alkaline phosphatase activity) of undifferentiated hES cells in chemically defined medium", "type": "cell-based, human", "conditions": "for support of culture of undifferentiated stem cells (AttoPhos): peptides conjugated to Formulation SA1 at 10, 100 and 1000 μM input concentration", "method": "All experimental plates were sterilized prior to the cell seeding by spraying with 70% ETOH, drying in a laminar hood, and washing five times with 200 μl Dulbecco's Phosphate Buffered Saline (DPBS). H7 hES cells were seeded on peptide conjugated swellable (meth)acrylate (SAP) surfaces at a density of 35,000 cells/well (96-well plate) in 100 μl of chemically defined medium Xvivo10 (Lonza, Cat #04-743Q) and supplemented with 80 ng/ml basic fibroblast growth factor (bFGF) (R&D systems, Cat #234-FSE/CF) and 0.5 ng/ml transforming growth factor-β1 (TGFβ1) (R&D systems, Cat. #240B). MATRIGEL™ (MG)-coated wells were used as positive control for adhesion of undifferentiated hES cells. Cells were cultured for 48 hrs under standard cell culture conditions (37° C. with 5% CO2) and then were fixed and processed for AttoPhos assay to measure alkaline phosphatase activity, which is a known marker for undifferentiated hES cells, and/or BCIP staining as described below.\nAttoPhos screening was performed as follows. Briefly, at the end of incubation time, cells were rinsed with 150 μl of DPBS and fixed with 4% paraformaldehyde for 10 min at room temperature (70 μl/well of 96-well plate). The cells were washed once with 150 μl of DPBS, and treated for 10 min with 100 μl of AttoPhos fluorescent substrate for alkaline phosphatase (Promega) (diluted 1:3 in DPBS) protected from light. AttoPhos fluorescent intensity at 485/535 nm was obtained using Victor 3 microplate reader (Perklin Elmer). AttoPhos fluorescent intensity for experimental surfaces was expressed as % of MATRIGEL™ control."}, "[3]": {"test_system": "HepG2/C3A cells", "experiment": "Serum-free attachment of HepG2/C3A cells (LDH activity, absorbance at 490 nm)", "type": "cell-based", "conditions": "peptide conjugated to SA layer, 24 hours", "method": "HepG2/C3A cells (ATCC # CRL-10741) were plated at 25,000 cells per well in 100 μl media in triplicate on SAP surfaces, BD BioCoat™ Collagen I and Corning CellBind® treated Topas™ in a 96 well format and cultured at in Eagle's Minimum Essential Medium (ATCC #30-2003) supplemented with 1% penicillin-streptomycin (Invitrogen #15140-155). The culture medium was not supplemented with fetal bovine serum (as recommended by the cell line supplier) nor was the SAP surface exposed to fetal bovine serum. The culture plates were incubated at 37° C., in 5% CO2 and 95% relative humidity for 24 hours. The cell culture plates having the SA surfaces were prepared as described in EXAMPLE 1. Peptides were conjugated according to EXAMPLE 2. […] The line in FIG. 24 indicates 75% performance of cells on Collagen 1.\nThe attachment of the HepG2/C3A cells was determined using a Cytotoxicity Assay (Promega CytoTox 96® Non-Radioactive Cytotoxicity Assay # G1780) which estimates the number of living cells attached to the culture surfaces. After 24 hours of in culture, the cells were vigorously washed with phosphate buffer, lysed via the introduction of the lysis buffer solution and incubation at 37 C for 1 hour to release lactate dehydrogenase (LDH) enzyme from the viable cells that remain attached to the culture surfaces. The biological activity of the released lactate dehydrogenase enzyme was measured via absorbance at 490 nm using a plate reader (Victor 3 from PerkinElmer)."}, "[4]": {"conditions": "peptide conjugated to swellable (meth)acrylate, 1 hour adhesion, OD570 nm normalized to Laminin"}},
  "note": "Bridges are numbered along the chain shown (N, C = ends). Where no end group is shown, it is not given here.",
  "data": [
    {"substance": "Ac-GlyArgGlyGluSerProIleTyrLys-NH2 (Ac-GRGESPIYK-NH2) [reference compound]", "values": [
      {"measurement": "adhesion of HT-1080 cells", "setting": "[1]; [4]", "value": "did not adhere"}
    ]},
    {"substance": "Ac-LysGlyGlyAsnGlyGluProArgGlyAspThrTyrArgAlaTyr-NH2 (Ac-KGGNGEPRGDTYRAY-NH2) [SEQ ID NO:4]", "values": [
      {"measurement": "AttoPhos fluorescence intensity (FI) compared to MATRIGEL control", "setting": "[2]; SEQ ID NO:4 conjugated to Formulation SA1A using 1000 μM solution, Xvivo10 + bFGF + TGFβ1, 48 hrs", "value": "56-60%"},
      {"measurement": "adhesion and growth of undifferentiated stem cells versus peptide concentration (AttoPhos)", "setting": "[2]; peptide at 1, 10, 100 and 1000 μM, formulation SA1A surfaces", "value": "peptide concentration dependent"},
      {"measurement": "support of culture of undifferentiated stem cells (AttoPhos)", "setting": "[2]", "value": "appeared to better support the culture of undifferentiated stem cells"}
    ]},
    {"substance": "Ac-LysGlyGlyCys^4AsnGlyGluProArgGlyAspThrTyrArgAlaTyrCys^17-NH2 (Ac-KGGCNGEPRGDTYRAYC-NH2; disulfide 4-17; SMILES CC(=O)N[C@@H](CCCCN)C(=O)NCC(=O)NCC(=O)N[C@H]1CSSC[C@@H](C(N)=O)NC(=O)[C@H](Cc2ccc(O)cc2)NC(=O)[C@H](C)NC(=O)[C@H](CCCNC(=N)N)NC(=O)[C@H](Cc2ccc(O)cc2)NC(=O)[C@H]([C@@H](C)O)NC(=O)[C@H](CC(=O)O)NC(=O)CNC(=O)[C@H](CCCNC(=N)N)NC(=O)[C@@H]2CCCN2C(=O)[C@H](CCC(=O)O)NC(=O)CNC(=O)[C@H](CC(N)=O)NC1=O) [SEQ ID NO:8]", "values": [
      {"measurement": "HT-1080 adhesion compared with linear BSP (SEQ ID NO:4)-conjugated (meth)acrylate", "setting": "[1]", "value": "supported HT-1080 adhesion similar to"}
    ]},
    {"substance": "Ac-LysGlyGlyCys^4GluProArgGlyAspThrTyrArgCys^17-NH2 (Ac-KGGCEPRGDTYRC-NH2; disulfide 4-13; SMILES CC(=O)N[C@@H](CCCCN)C(=O)NCC(=O)NCC(=O)N[C@H]1CSSC[C@@H](C(N)=O)NC(=O)[C@H](CCCNC(=N)N)NC(=O)[C@H](Cc2ccc(O)cc2)NC(=O)[C@H]([C@@H](C)O)NC(=O)[C@H](CC(=O)O)NC(=O)CNC(=O)[C@H](CCCNC(=N)N)NC(=O)[C@@H]2CCCN2C(=O)[C@H](CCC(=O)O)NC1=O) [SEQ ID NO:9]", "values": [
      {"measurement": "HT-1080 adhesion compared with linear BSP (SEQ ID NO:4)-conjugated (meth)acrylate", "setting": "[1]", "value": "supported HT-1080 adhesion similar to"}
    ]},
    {"substance": "Ac-LysGlyGlyLys^4AsnGlyGluProArgGlyAspThrTyrArgAlaTyrAsp^17-NH2 (Ac-KGGKNGEPRGDTYRAYD-NH2; lactam 4-17; SMILES CC(=O)N[C@@H](CCCCN)C(=O)NCC(=O)NCC(=O)N[C@H]1CCCCNC(=O)C[C@@H](C(N)=O)NC(=O)[C@H](Cc2ccc(O)cc2)NC(=O)[C@H](C)NC(=O)[C@H](CCCNC(=N)N)NC(=O)[C@H](Cc2ccc(O)cc2)NC(=O)[C@H]([C@@H](C)O)NC(=O)[C@H](CC(=O)O)NC(=O)CNC(=O)[C@H](CCCNC(=N)N)NC(=O)[C@@H]2CCCN2C(=O)[C@H](CCC(=O)O)NC(=O)CNC(=O)[C@H](CC(N)=O)NC1=O) [SEQ ID NO:6]", "values": [
      {"measurement": "HT-1080 adhesion compared with linear BSP (SEQ ID NO:4)-conjugated (meth)acrylate", "setting": "[1]", "value": "supported HT-1080 adhesion similarly to linear BSP-conjugated (meth)acrylates"}
    ]},
    {"substance": "Ac-LysGlyGlyLys^4GluProArgGlyAspThrTyrArgAsp^13-NH2 (Ac-KGGKEPRGDTYRD-NH2; lactam 4-13; SMILES CC(=O)N[C@@H](CCCCN)C(=O)NCC(=O)NCC(=O)N[C@H]1CCCCNC(=O)C[C@@H](C(N)=O)NC(=O)[C@H](CCCNC(=N)N)NC(=O)[C@H](Cc2ccc(O)cc2)NC(=O)[C@H]([C@@H](C)O)NC(=O)[C@H](CC(=O)O)NC(=O)CNC(=O)[C@H](CCCNC(=N)N)NC(=O)[C@@H]2CCCN2C(=O)[C@H](CCC(=O)O)NC1=O) [SEQ ID NO:7]", "values": [
      {"measurement": "HT-1080 adhesion compared with linear BSP (SEQ ID NO:4)-conjugated (meth)acrylate", "setting": "[1]", "value": "supported HT-1080 adhesion similarly to linear BSP-conjugated (meth)acrylates"}
    ]},
    {"substance": "Ac-LysTyrGlyArgLysArgLeuGlnValGlnLeuSerIleArgThr-NH2 (Ac-KYGRKRLQVQLSIRT-NH2) [AG-73]", "values": [
      {"measurement": "adhesion of HT-1080 cells", "setting": "[1]; 1 μM peptide solution used for conjugation", "value": "did not result in cell adhesive surface"},
      {"measurement": "adhesion of HT-1080 cells", "setting": "[1]; 10 μM peptide solution used for conjugation", "value": "resulted in an adhesive surface"},
      {"measurement": "adhesion of HT-1080 cells", "setting": "[1]; 100 μM peptide solution used for conjugation", "value": "resulted in an adhesive surface"},
      {"measurement": "adhesion of HT-1080 cells", "setting": "[1]; [4]", "value": "adhered specifically"}
    ]},
    {"substance": "GlyArgGlyAspSerProLys (GRGDSPK; Synthetic polypeptide including sequence derived from human fibronectin) [s-FN]", "values": [
      {"measurement": "support of culture of undifferentiated stem cells (AttoPhos)", "setting": "[2]", "value": "comparable in performance to the long fibronectin sequence"}
    ]},
    {"substance": "KGGGQKCIVQTTSWSQCSKS (cysteine pairing not given here) [SEQ ID NO:13]", "values": [
      {"measurement": "serum-free attachment of HepG2/C3A cells compared with CellBind treated Topas", "setting": "[3]", "value": "greater than CellBind® treated Topas™"}
    ]},
    {"substance": "KGGTWYKIAFQRNRK [SEQ ID NO:16]", "values": [
      {"measurement": "attachment of HepG2/C3A cells compared to Collagen I", "setting": "[3]", "value": "*CLS 01020 (Polypeptides exhibiting results better than 75% attachment compared to Collagen I (see FIG. 24) are marked with an asterix in Table 6)"},
      {"measurement": "serum-free attachment of HepG2/C3A cells compared with CellBind treated Topas", "setting": "[3]", "value": "greater than CellBind® treated Topas™"}
    ]},
    {"substance": "KYGKAFDITYVRLKF [SEQ ID NO:21]", "values": [
      {"measurement": "serum-free attachment of HepG2/C3A cells compared with CellBind treated Topas", "setting": "[3]", "value": "greater than CellBind® treated Topas™"}
    ]},
    {"substance": "KYGSETTVKYIFRLHE [SEQ ID NO:19]", "values": [
      {"measurement": "attachment of HepG2/C3A cells compared to Collagen I", "setting": "[3]", "value": "*CLS 01035 (Polypeptides exhibiting results better than 75% attachment compared to Collagen I (see FIG. 24) are marked with an asterix in Table 6)"},
      {"measurement": "serum-free attachment of HepG2/C3A cells compared with CellBind treated Topas", "setting": "[3]", "value": "greater than CellBind® treated Topas™"}
    ]}
  ]
}
